Values quoted from earlier work, collected in PMC12661886, “A phase 1/2 study of DS-1594 menin inhibitor in relapsed/refractory acute leukemias” (Journal of Hematology & Oncology, 2025).

Key:
[1] = test system: KMT2A-r and NPM1mut R/R AML; parameters: method as in doi:10.1182/blood-2024-194827
[2] = test system: MV4;11 cells harboring KMT2A-r with CRISPR-Cas9 induced menin mutations; parameters: method as in doi:10.1182/blood-2024-208887; details: menin mutations except M327
QT and QTc intervals = test system: QT and QTc intervals; parameters: method as in Investigator Brochure; details: predicted by exposure-response analysis; ref Investigator Brochure
[3] = test system: R/R NPM1mut, NUP98-r, KMT2A-r AML; parameters: method as in earlier work
[4] = test system: R/R KMT2A-r ALL/AML/MPAL or R/R NPM1mut AML
[5] = test system: cell lines of KMT2A-r leukemia harboring MEN1-M327I or MEN1-T349M; parameters: method as in PMID 38905635

**Q.** Which “All grade DS, patients” value [1] does the source give for `C=C1C[C@@H]2CC[C@H]1[C@@H](C(=O)N1CCC3(CC1)CN(c1ncncc1Oc1ccc(F)cc1C(=O)N(C(C)C)C(C)C)C3)N2` [Enzomenib] here?
**A.** Its value is 10.7%.

**Q.** And the “Grade 3 or higher DS, patients” value [1]?
**A.** The value was “about 7%”.

**Q.** What about the “CR + CRh rate, KMT2A-r R/R AML” value ([1]; 200 mg or 300 mg BID) of the same molecule?
**A.** The value was 30%.

**Q.** And the “CR + CRh rate, NPM1mut R/R AML” value ([1]; 200 mg or 300 mg BID)?
**A.** The value was 47%.

**Q.** What about the “ORR, KMT2A-r R/R AML” value ([1]; 200 mg or 300 mg BID) of the same molecule?
**A.** The value was 65%.

**Q.** And the “ORR, NPM1mut R/R AML” value ([1]; 200 mg or 300 mg BID)?
**A.** The value was 59%.

**Q.** Which “median DOR” value (R/R AML) does the source give for `CNc1nc(NC2CCN(Cc3ccc4c(cc(C#N)n4C[C@H](C)N4CCN(S(C)(=O)=O)CC4)c3C)CC2)c2cc(CC(F)(F)F)sc2n1` [ziftomenib] here?
**A.** The value was 6.6 months.

**Q.** And the “responses in the dose finding phase” value (R/R AML)?
**A.** The value was “no significant responses were observed”.

**Q.** And the “CR/CRh rate, R/R NPM1mut AML” value (R/R AML; 600 mg dose)?
**A.** Its value is 35%.

**Q.** And the “patients achieving CR/CRh, NPM1mut AML previously treated with venetoclax” value (R/R AML; 600 mg dose)?
**A.** The value was 5/7.

**Q.** And the “all-grade DS” value (R/R AML; KOMET phase 1a and 1b (n = 83))?
**A.** Its value is 21%.

**Q.** What about the “grade 3 DS” value (R/R AML; KOMET phase 1a and 1b (n = 83)) of the same molecule?
**A.** The value was 14%.

**Q.** And the CR/CRh rate (R/R AML; RP2D 600 mg/day, phase 1b)?
**A.** Its CR/CRh rate is 25%.

**Q.** What about the IC50 [2] of the same molecule?
**A.** Its IC50 is 22.2 nM.

**Q.** For `COc1cc(-c2ccc(CN[C@H]3C[C@@H](O)[C@@H](N(C)c4ncnc5sc(CC(F)(F)F)cc45)C3)cc2)nnc1OC` [DS-1594a], which “plasma concentration to induce QTc interval prolongation by 10 milliseconds” value (QT and QTc intervals) is on record?
**A.** The value was “around 1000 ng/mL”.

**Q.** Which results are given for `CCN(C(=O)c1cc(F)ccc1Oc1cncnc1N1CC2(CCN(C[C@H]3CC[C@H](NS(=O)(=O)CC)CC3)CC2)C1)C(C)C` [revumenib]?
**A.** CR/CRh rate ([3]; SAVE regimen): 48%; consolidated with an HSCT ([3]; SAVE regimen): 39%; median duration of CR/CRh ([3]; about 9 months median follow-up): not achieved; ORR ([3]; combination with oral decitabine-cedazuridine and venetoclax): 82%; grade 3 or higher QTc prolongation, patients [4]: 14%; median DOR, CR + CRh [4]: 6.4 months; median DOR, KMT2A-r acute leukemias with CR/CRh [4]: about 6 months; median duration of response (DOR), patients with an ORR [4]: 4.3 months; CR + CRh rate ([4]; AUGMENT 101): 23%; overall response rate (ORR) ([4]; AUGMENT 101): 63%; grade 3 or higher differentiation syndrome, patients ([4]; AUGMENT-101): 16%; overall DS rate ([4]; AUGMENT-101 study): about 28%

**Q.** For `CCN(C(=O)c1cc(F)ccc1Oc1nncnc1N1CCC2(C1)CN([C@H](CCCN(C)CCOC)C(C)C)C2)C(C)C` [bleximenib], which IC50 [2] is on record?
**A.** The IC50 was 3.3 nM.

**Q.** And the “efficacy in menin-mutant cell lines” value [5]?
**A.** Its value is “showed efficacy”.
